Results published in patent US20030120046A1, “Radioisotope-labeled complexes of glucose derivatives and kits for the preparation thereof” (priority 2000, published 2003).
Read-outs that look alike come from different tables or passages of the source.

Assays:
VX-2 tumor cells = conditions: for Normal region counts / Tumor counts: 1.5 mCi i.v.
Experimental: Further, ^99mTc-labeled radiopharmaceuticals were tested for their stability in a physiological saline and the human plasma with the lapse of time (see Example 4). […] The radiopharmaceuticals of the present invention were tested for biodistribution and the uptake level in rabbits transplanted with VX-2 tumor cells and then, compared with ^99mTc-MIBI currently used for imaging tumor in nuclear medicine (see Example 5). More specifically, ^99mTc-labeled glucose derivatives were injected to rabbits transplanted with tumor cells to obtain image using gamma camera. Then, the organs were removed to measure biodistribution and the uptake level of radiopharmaceuticals by calculating % ID (injected dose)/g, indicative of the uptake level of the injected radiopharmaceuticals per weight of tissues.
VX-2 tumor cells were ground in 2 ml of a physiological saline and then, transplanted via intramuscular injection to the right thigh muscle of three rabbits (New Zealand White species) weighing 2.5 to 3 kg using a syringe. Then, the rabbits were bred for 3 weeks to grow tumor to have a diameter of 2 to 3 cm. […] After injection, the rabbits were laid down under gamma camera and the gamma camera was controlled to cover the whole body and images were obtained for 15 minutes at 1 and 3 hours after injection, respectively.
The image of ^99mTc-MIBI was obtained at 10 minutes after injection. […] It is conventional that the standardized imaging time cannot be applied for radiopharmaceuticals since their physical, chemical and physiological properties all are different. Thus, the optimal imaging time may be set depending upon the employed radiopharmaceutical.
After obtaining image of the regions of interest, the uptake level of radioactivity was calculated from counts (unit of radioactivity) obtained by a particular program equipped with a gamma camera.

tumor = conditions: background art, in words; cited from earlier work
[1] = Stability test of radiopharmaceuticals in the human plasma (purity by TLC); assay type: in vitro ADME; conditions: room temperature, mean of 3 experiments
Experimental: (§1) The stability of radiopharmaceuticals was expressed as the purity of radiopharmaceutical at a given time, and measured after 0, 2, 4 and 6 hrs in a physiological saline and the human plasma, respectively. […] After well stirring the ingredients in each vial, the stability was measured at given times at room temperature.
(§2) The stability was measured as follows. 5 μl of each radiopharmaceutical was deposited in the lower part of TLC and was developed using methyl ethyl ketone (or acetone) and 0.9% physiological saline, respectively. Upon completion of development, each TLC was equally divided into 2 parts and the radioactivity of each part was measured using gamma counter. The stability was calculated by measurement of the purity from the obtained radioactivity. […] The purity of radiopharmaceuticals is calculated as follows.
(§3) 100%−[(radioactivity in the upper part of TLC developed with acetone÷radioactivity in the whole TLC developed with acetone)+(radioactivity in the lower part of TLC developed with 0.9% physiological saline÷radioactivity in the whole TLC developed with 0.9% physiological saline)]×100%

[2] = Stability test of radiopharmaceuticals in a physiological saline (purity by TLC); assay type: physicochemical; conditions: room temperature, mean of 3 experiments
Experimental: as §1, §2, §3

[3] = anterior image, 10 minutes after injection (footnote)
[4] = posterior image, 10 minutes after injection (footnote)

[99Tc].[C-]#[N+]CC(C)(C)OC.[C-]#[N+]CC(C)(C)OC.[C-]#[N+]CC(C)(C)OC.[C-]#[N+]CC(C)(C)OC.[C-]#[N+]CC(C)(C)OC.[C-]#[N+]CC(C)(C)OC [^99mTc-MIBI, ^99mTc-MIBI (methoxy isobutyl isonitrile)]
Tumor/Normal ratio (VX-2 tumor cells; [3]): 1.7
Normal region counts (VX-2 tumor cells; [3]): 5829 counts
Tumor counts (VX-2 tumor cells; [3]): 9931 counts
Tumor uptake/normal region uptake ratio (VX-2 tumor cells; anterior image, 10 minutes after injection (footnote), Mean ± S.D. from 3 experiments): 2.22 ± 0.87
wash-out in vivo (VX-2 tumor cells; image cannot be practically obtained at 30 minutes or more after injection, in words): rapidly washed out
Tumor/Normal ratio (VX-2 tumor cells; [4]): 2.0
Normal region counts (VX-2 tumor cells; [4]): 6566 counts
Tumor counts (VX-2 tumor cells; [4]): 13047 counts
uptake rate in the abdomen (tumor): high
uptake rate in tumor (tumor): unsatisfactory
wash-out rate in vivo (tumor): high

^99mTc-glucosamine
Purity of radiopharmaceuticals at given times ([1]; 0 h): 99.5%
Purity of radiopharmaceuticals at given times ([1]; 2 h): 95.4%
Purity of radiopharmaceuticals at given times ([1]; 4 h): 95.0%
Purity of radiopharmaceuticals at given times ([1]; 6 h): 92.4%
Purity of radiopharmaceuticals at given times ([2]; 0 h): 99.5%
Purity of radiopharmaceuticals at given times ([2]; 2 h): 98.9%
Purity of radiopharmaceuticals at given times ([2]; 4 h): 98.0%
Purity of radiopharmaceuticals at given times ([2]; 6 h): 97.6%
